Results taken from US11034751B1, “Methods and compositions for treating cancer using serotonin receptor inhibitors” (Flagship Pioneering Innovations V, Inc., priority 2018, dated 2021).

Test system: macrophages
Test: IL8 secretion by macrophages incubated with serotonin receptor agonists (bead-based immunoassay)
Format: cell-based
Settings: human monocyte-derived macrophages (M-CSF)
Description: CD14+ monocytes were isolated from human PBMCs using negative magnetic bead selection (Stemcell Technologies) on day 0. Cells were cultured with M-CSF to differentiate monocytes to macrophages. On day 6, cells were treated with LP44 (high affinity 5-HT7 agonist), BW 723C86 hydrochloride (5-HT2B agonist), MK 212 hydrochloride (5-HT2C agonist) (Sigma-Aldrich), at concentrations 1 μM and 10 μM overnight. Supernatant was collected and bead-based immunoassays (Biolegend) were performed to detect changes in cytokine secretion.
Across multiple human donors, secretion of the inflammatory cytokine, IL8, by macrophages was decreased after addition of each of the HTR2B, HTR2C, and HTR7 agonists, as show in Table 18 below.

## CC(N)Cc1c[nH]c2ccc(OCc3cccs3)cc12.Cl (stereo not drawn) [BW723086]
1 μM overnight
  Fold change of IL-8 (Normalized to Macs + LPS with no compound treatment): 0.670
10 μM overnight
  Fold change of IL-8 (Normalized to Macs + LPS with no compound treatment): 0.508

## CSc1ccccc1N1CCN(CCCCCC(=O)NC2CCCc3ccccc32)CC1 (stereo not drawn) [LP44]
1 μM overnight
  Fold change of IL-8 (Normalized to Macs + LPS with no compound treatment): 0.340
10 μM overnight
  Fold change of IL-8 (Normalized to Macs + LPS with no compound treatment): 0.427

## Clc1cncc(N2CCNCC2)n1 [MK212]
1 μM overnight
  Fold change of IL-8 (Normalized to Macs + LPS with no compound treatment): 0.502
10 μM overnight
  Fold change of IL-8 (Normalized to Macs + LPS with no compound treatment): 0.484
